From patent publication US20130331331A1, “HEXAPEPTIDE WITH IMPROVED ACTIVITY IN THE REPAIR OF CELLULAR DNA OF DERMAL CELLS” (priority 2011, published 2013)
Non-standard residues stand in square brackets, D forms with d. Nle = CCCC[C@H](N)C(=O)O

Assays:
Type in all cases: cell-based, human
Melanocytes = assay: DNA damage as measured by cyclobutane pyrimidine dimers (CPD), flow cytometry; conditions: 48 h after 105 mJ/cm^2 UV
Method: Cyclobutane pyrimidine dimers (CPD), the major determinant of UV-induced DNA photoproducts, were detected using flow cytometry analysis.
Melanocytes were pretreated with 0 (control), 10 nM α-MSH or 1 nM NDP-MSH or 1 nM CUV9900 for 4 days prior to, and 2 days after exposure to 105 mJ/cm^2 UV, harvested 48 hours post irradiation, fixated with 70% ethanol, the DNA denatured with 1N HCl/0.2 mg/ml pepsin, then renaturated with sodium tetraborate. Melanocytes were blocked and incubated overnight at 4° C. with the anti-CPD antibody (diluted 1:500; TDM-2 clone), then with goat anti-mouse IgG Alexa Fluor 488 (Invitrogen, Carlsbad Calif.) for 1 hour, and finally resuspended in PBS containing RNase A and propidium iodide. Melanocytes were analyzed on a Coulter EPICS XL flow cytometer (Beckman Coulter) using a 488 nm argon ion laser A 525 band pass filter was used for the Alexa fluor 488 and a 620 band pass filter for the propidium iodide.

melanocytes strain 1505b = assay: Tyrosinase activity dose-response, strain 1505b
Method: Dose-response experiments were carried out on another adult strain 102b which is shown in FIG. 6 and on the strain 1505b which is a melanocyte strain: melanocytes were treated with 0.001-10 nM CUV9990 or NDP-MSH, or 0.1-10 nM MSH for a total of 6 days, with the culture medium changed and fresh peptide added every other day. Cell numbers as well as tyrosinase activity were then determined. Tyrosinase activity was calculated first at activity/10^6 cells, and then as % of control. Twenty-four hours prior the end of the experiment, melanocytes received […] (0.7 μCi/ml medium). The conditioned medium from each dish was collected to be assayed for tyrosinase activity, and the cell numbers were determined using a Coulter Counter. Triplicate dishes were included in each group, and duplicate samples from each dish were assayed for tyrosinase activity. Each data point is the mean percent of control of 6 determinations/group±S.E.

melanocyte strain 102b = assay: Tyrosinase activity dose-response, strain 102b; conditions: subnanomolar concentrations
Method: Cell numbers as well as tyrosinase activity were then determined. Tyrosinase activity was calculated first at activity/10^6 cells, and then as % of control. […] The conditioned medium from each dish was collected to be assayed for tyrosinase activity, and the cell numbers were determined using a Coulter Counter. Triplicate dishes were included in each group, and duplicate samples from each dish were assayed for tyrosinase activity.

[1] = test system: melanocytic strains 1563c and 102b; assay: Ultrastructural visualization of DOPA-stained HM (electron microscopy); conditions: 0.1 nM or 1 nM CUV9900, 1 nM MSH
Method: With reference to FIGS. 14 and 15, two melanocytic strains, a lightly pigmented strain 1563c of FIG. 14 and strain 102b of FIG. 15 were plated in 4-well chamber slides and treated […] with either 0.1 nM or 1 nM CUV9900 or 1 nM MSH for a total of 6 days. Cells were processed for electron microscopy in the presence or absence of histochemical reaction with DOPA. Microtome sections were analyzed in a JEOL JEM-1230 transmission electron microscope and photomicrographs (15,000×) of the perinuclear area and dendrites were taken for each experimental group.

melanocytes strain 1513c = assay: cAMP levels, radioimmunoassay, strain 1513c; conditions: 45 min, 0.1 mM IBMX
Method: Dose-response experiments were carried out on three melanocytic strains, namely strains 1513c, 1505b and 105c melanocytes were treated with 1 pM-10 nM CUV9900 or NDP-MSH, or with 0.1-10 nM MSH for 45 minutes in the presence of 0.1 mM isobutyl methylxanthine (IBMX). The results obtained from strain 1513c are shown in FIG. 3, the results obtained from strain 1505b are shown in FIG. 5a and the results obtained from strain 105c are shown in FIG. 5b. The strains 1505b and 1513c were obtained from the same human adult while the strain 105c was obtained from another human adult. Cyclic AMP is the second messenger for the melanocortin-1 receptor, and assessment is usually performed indicating cellular activity reflective of melanogenesis. Cyclic AMP levels were determined using ^125I-labeled radioimmunoassay kit (Perkin Elmer, Waltham, Mass.), in human melanocytes that were treated with 0 (control), 0.1-10.0 nM α-MSH, or 0.001-10 nM NDP-MSH or 0.001-10.0 nM CUV 9900 for […]. in the presence of 0.1 mM IBMX, a phosphodiesterase inhibitor to prevent cAMP degradation. Triplicate wells were included in each group, and duplicate samples from each well were assayed for cAMP levels. Each data point is the mean percent of control of 6 determinations/group±S.E.

melanocytic strain 103c = assay: UV-induced generation of hydrogen peroxide (luminol), strain 103c; conditions: 1 nM, 105 mJ/cm^2 UV, 0, 30 and 45 minutes after irradiation
Text: With reference to FIGS. 10 and 11, melanocytes were irradiated with a bank of FS 20 lamps, with 75% emission in the UVB, and 25% emission in the UVA spectra, with peak emission at 313 nm wavelength. Any emission of UVC rays from the UV source (FS 20 lamps) was blocked by Kodacel filter. Prior to irradiation, the culture medium was replaced by PBS, which was removed after UV exposure, and fresh medium added.
Melanocytes were irradiated with 105 mJ/cm^2 UV, and treated immediately while in PBS with 0, 1 nM α-MSH or 1 nM CUV9900. Generation of hydrogen peroxide, representative of reactive oxygen species (ROS), was determined by measuring the luminescence of luminol at 0, 30, and 45 min after UV exposure. Triplicate dishes were included in each group, and duplicate samples from each dish were used for measurement of hydrogen peroxide at each time point. Each data point represents the mean of 6 determinations/group±S.E.
In the melanocytic strain 1505b of FIG. 10 and melanocytic strain 103c of FIG. 11, hydrogen peroxide generation was assessed at 0, 30 and 45 minutes after UV irradiation.

effect on tyrosinase activity, comparison (melanocytes strain 1505b): equivalent to that of NDP-MSH
minimal effective dose, tyrosinase activity (melanocytes strain 1505b; 6 days treatment): 1 pM
Substance: Ac-Nle-Glu His-D-Phe-Arg-Trp-NH2 (Ac-[Nle]EH[dF]RW-NH2; SMILES CCCC[C@H](NC(C)=O)C(=O)N[C@@H](CCC(=O)O)C(=O)N[C@@H](Cc1c[nH]cn1)C(=O)N[C@H](Cc1ccccc1)C(=O)N[C@@H](CCCNC(=N)N)C(=O)N[C@@H](Cc1c[nH]c2ccccc12)C(N)=O) [CUV9900, hexapeptide alpha-MSH analogue]
CPD cellular DNA damage, comparison in words (Melanocytes): less CPD cellular DNA damage in comparison with and NDP-MSH and slightly higher values than alpha-MSH
stimulation of tyrosinase activity, comparison (melanocyte strain 102b): greater stimulation of tyrosinase activity than NDP-MSH
melanosomes and DOPA reactivity by electron microscopy [1]: increased mature (stage IV) melanosomes in the perinuclear area and more so in dendrites
cAMP, potency comparison (melanocytes strain 1513c; 0.1 nM): more potent than NDP-MSH
maximal level of cAMP, comparison (melanocytes strain 1513c; 10 nM): higher maximal level of cAMP than MSH
UV-induced hydrogen peroxide generation (melanocytic strain 103c): significant reduction of UV-induced hydrogen peroxide generation
